According to US11000033B2, “Ketone or oxime compound, and herbicide” (NISSAN CHEMICAL CORPORATION, priority 2014, dated 2021):

What was measured:
Assay type in all cases: in vivo
rice plant = assay: Test Example 5: effect on crop by foliage application, plastic box (symbol b); conditions: 320 g/ha, 3 weeks after application
In short: (§1)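 Soil: sterilized diluvial. Container: plastic box, 21 × 13 cm, 7 cm deep. Sowing: spot-like, ~1.5 cm cover. Growth: greenhouse, 25° C. to 30° C.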

corn = assay: Test Example 5: effect on crop by foliage application, plastic box (symbol c); conditions: 320 g/ha, 3 weeks after application
In short: as §1

Leptochloa chinensis = assay: Test Example 3: herbicidal effect by foliage application, Wagner pot (symbol D); conditions: application herbicide amount 320 g/ha
In short: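 Herbicidal activity was rated three weeks after a foliar spray of diluted emulsion concentrate, applied at a predetermined dose to plants grown for 14 days from seed in waterlogged alluvial soil within a 25–30 °C greenhouse.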

Amaranthus retroflexus = assay: Test Example 4: herbicidal effect by soil treatment (symbol N)
In short: (§2)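 Seeds were sown in sterilized diluvial soil, covered with about 1.5 cm of soil, and the soil surface was sprayed with a water-diluted emulsion of the compound at a predetermined rate. Plants grew in a greenhouse at 25° C. to 30° C.; effects were scored visually 3 weeks after application.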

Alopecurus myosuroides = assay: Test Example 5: herbicidal effect by foliage application, plastic box (symbol J); conditions: 320 g/ha, 3 weeks after application
In short: (§3)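 Visual herbicidal score, taken three weeks post-application, of seedlings sprayed on the foliage with water-diluted emulsion at a predetermined amount; plants were 14 days old, greenhouse-raised at 25° C. to 30° C.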

Chenopodium album = assay: Test Example 5: herbicidal effect by foliage application, plastic box (symbol O); conditions: 320 g/ha, 3 weeks after application
In short: as §3

wheat [1] = assay: Test Example 5: effect on crop by foliage application, plastic box (symbol e); conditions: 320 g/ha, 3 weeks after application
In short: as §1

wheat [2] = assay: Test Example 4: effect on crop by soil treatment (symbol e); conditions: for e: wheat, effect grade on crop: 320 g/ha
In short: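 Steps: fill box with sterilized diluvial soil; sow seed spot-like; cover with ~1.5 cm soil; grow in greenhouse (25° C. to 30° C.).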

[3] = test system: Echinochloa oryzacola Vasing.; assay: Test Example 2: herbicidal activity, application during weed generation in submerged conditions (symbol A); conditions: Table 23; application herbicide amount 320 g/ha; grade 0-5 by criteria of Test Example 1
In short: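 Visual herbicidal ratings, taken three weeks after dosing, reflect post-emergence water-surface application to seedlings at one to two leaves. Conditions: co-sown weeds in alluvial soil flooded to 4 cm, greenhouse held at 25° C. to 30° C.; compound given as water-diluted emulsion at a fixed herbicide amount.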

beet = assay: Test Example 5: effect on crop by foliage application, plastic box (symbol f); conditions: 320 g/ha, 3 weeks after application
In short: as §1

Setaria viridis [4] = assay: Test Example 5: herbicidal effect by foliage application, plastic box (symbol G); conditions: 320 g/ha, 3 weeks after application
In short: as §3

Setaria viridis [5] = assay: Test Example 4: herbicidal effect by soil treatment (symbol G)
In short: as §2

[6] = application herbicide amount 320 g/ha

Structure (SMILES) | b: directly sowed rice plant, effect on crop grade (rice plant) | c: corn, effect on crop grade (corn) | herbicidal effect on D (Leptochloa chinensis), grade 0-5 (Leptochloa chinensis) | N: Amaranthus retroflexus, herbicidal effect grade (Amaranthus retroflexus; [6]) | J: Alopecurus myosuroides, herbicidal effect grade (Alopecurus myosuroides) | O: Chenopodium album, herbicidal effect grade (Chenopodium album) | e: wheat, effect on crop grade (wheat [1]) | e: wheat, effect on crop grade (wheat [2]; [6]) | Herbicidal effect grade, A: Echinochloa oryzacola Vasing. [3] | f: beet, effect on crop grade (beet) | G: Setaria viridis, herbicidal effect grade (Setaria viridis [4]) | G: Setaria viridis, herbicidal effect grade (Setaria viridis [5]; [6]) | b: directly sowed rice plant, effect on crop (criteria 0-5) (rice plant) | c: corn, effect on crop (criteria 0-5) (corn) | N: Amaranthus retroflexus, herbicidal effect grade (Amaranthus retroflexus; 320 g/ha) | J: Alopecurus myosuroides, herbicidal effect (criteria 0-5) (Alopecurus myosuroides) | O: Chenopodium album, herbicidal effect (criteria 0-5) (Chenopodium album) | e: wheat, effect on crop (criteria 0-5) (wheat [1]) | e: wheat, effect grade on crop (wheat [2]) | f: beet, effect on crop (criteria 0-5) (beet) | also measured
CON=CC1CC(O)=C(c2c(C)cc(C)cc2C)C1=O (mixture of isomers) [3-001] | 4 (Herbicidal ratio of 70% or higher and lower than 90%) | 2 (Herbicidal ratio of 20% or higher and lower than 40%) | 2 (Herbicidal ratio of 20% or higher and lower than 40%) | 0 (Herbicidal ratio of 5% or lower (almost no effect)) | 3 (Herbicidal ratio of 40% or higher and lower than 70%) | 0 (Herbicidal ratio of 5% or lower (almost no effect)) | 0 (Herbicidal ratio of 5% or lower (almost no effect)) | 0 (Herbicidal ratio of 5% or lower (almost no effect)) | 0 (Herbicidal ratio of 5% or lower (almost no effect)) | 0 (Herbicidal ratio of 5% or lower (almost no effect)) | 3 (Herbicidal ratio of 40% or higher and lower than 70%) | 0 (Herbicidal ratio of 5% or lower (almost no effect)) |  |  |  |  |  |  |  |  | 
C=CCN(CC=C)C(=O)OC1=C(c2c(C)cc(C)cc2C)C(=O)C(CC(C)=NOC)C1 (stereo not drawn) [1-153] |  |  | 5 (Herbicidal ratio of 90% or more (almost completely withered)) |  |  |  |  |  | 4 (Herbicidal ratio of 70% or higher and lower than 90%) |  |  |  | 5 (Herbicidal ratio of 90% or more (almost completely withered)) | 3 (Herbicidal ratio of 40% or higher and lower than 70%) | 0 (Herbicidal ratio of 5% or lower (almost no effect)) | 5 (Herbicidal ratio of 90% or more (almost completely withered)) | 0 (Herbicidal ratio of 5% or lower (almost no effect)) | 5 (Herbicidal ratio of 90% or more (almost completely withered)) | 2 (Herbicidal ratio of 20% or higher and lower than 40%) | 0 (Herbicidal ratio of 5% or lower (almost no effect)) | G: Setaria viridis, herbicidal effect (criteria 0-5) (Setaria viridis [4]): 5 (Herbicidal ratio of 90% or more (almost completely withered)); G: Setaria viridis, herbicidal effect grade (Setaria viridis [5]; 320 g/ha): 1 (Herbicidal ratio of 5% or higher and lower than 20%)
CON=C(C)CC1CC(OS(=O)(=O)CC[Si](C)(C)C)=C(c2c(C)cc(C)cc2C)C1=O (stereo not drawn) [1-144] |  |  | 5 (Herbicidal ratio of 90% or more (almost completely withered)) |  |  |  |  |  | 5 (Herbicidal ratio of 90% or more (almost completely withered)) |  |  |  | 5 (Herbicidal ratio of 90% or more (almost completely withered)) | 5 (Herbicidal ratio of 90% or more (almost completely withered)) | 0 (Herbicidal ratio of 5% or lower (almost no effect)) | 5 (Herbicidal ratio of 90% or more (almost completely withered)) | 0 (Herbicidal ratio of 5% or lower (almost no effect)) | 4 (Herbicidal ratio of 70% or higher and lower than 90%) | 0 (Herbicidal ratio of 5% or lower (almost no effect)) | 2 (Herbicidal ratio of 20% or higher and lower than 40%) | G: Setaria viridis, herbicidal effect (criteria 0-5) (Setaria viridis [4]): 5 (Herbicidal ratio of 90% or more (almost completely withered)); G: Setaria viridis, herbicidal effect grade (Setaria viridis [5]; 320 g/ha): 5 (Herbicidal ratio of 90% or more (almost completely withered))
CON=C(C)CC1CC(OCCSC)=C(c2c(C)cc(C)cc2C)C1=O (stereo not drawn) [1-011] | 2 (Herbicidal ratio of 20% or higher and lower than 40%) | 0 (Herbicidal ratio of 5% or lower (almost no effect)) | 5 (Herbicidal ratio of 90% or more (almost completely withered)) |  | 4 (Herbicidal ratio of 70% or higher and lower than 90%) | 0 (Herbicidal ratio of 5% or lower (almost no effect)) | 0 (Herbicidal ratio of 5% or lower (almost no effect)) |  | 0 (Herbicidal ratio of 5% or lower (almost no effect)) | 0 (Herbicidal ratio of 5% or lower (almost no effect)) | 0 (Herbicidal ratio of 5% or lower (almost no effect)) |  |  |  |  |  |  |  |  |  | N (Amaranthus retroflexus) herbicidal effect grade (Amaranthus retroflexus; [6]): 0 (Herbicidal ratio of 5% or lower (almost no effect)); e (wheat) effect on crop grade (wheat [2]; [6]): 0 (Herbicidal ratio of 5% or lower (almost no effect)); G (Setaria viridis) herbicidal effect grade (Setaria viridis [5]; [6]): 0 (Herbicidal ratio of 5% or lower (almost no effect))
Cc1cc(C)c(C2=C(O)CC(CC(=O)C(C)(C)C)C2=O)c(C)c1 (stereo not drawn) [2-022] | 5 (Herbicidal ratio of 90% or more (almost completely withered)) | 3 (Herbicidal ratio of 40% or higher and lower than 70%) | 4 (Herbicidal ratio of 70% or higher and lower than 90%) | 0 (Herbicidal ratio of 5% or lower (almost no effect)) | 3 (Herbicidal ratio of 40% or higher and lower than 70%) | 0 (Herbicidal ratio of 5% or lower (almost no effect)) | 0 (Herbicidal ratio of 5% or lower (almost no effect)) | 0 (Herbicidal ratio of 5% or lower (almost no effect)) | 1 (Herbicidal ratio of 5% or higher and lower than 20%) | 0 (Herbicidal ratio of 5% or lower (almost no effect)) | 0 (Herbicidal ratio of 5% or lower (almost no effect)) | 4 (Herbicidal ratio of 70% or higher and lower than 90%) |  |  |  |  |  |  |  |  | 
CCC(CCC1CC(O)=C(c2c(C)cc(C)cc2C)C1=O)=NOC (mixture of isomers) [4-001] | 4 (Herbicidal ratio of 70% or higher and lower than 90%) | 1 (Herbicidal ratio of 5% or higher and lower than 20%) | 3 (Herbicidal ratio of 40% or higher and lower than 70%) | 0 (Herbicidal ratio of 5% or lower (almost no effect)) | 5 (Herbicidal ratio of 90% or more (almost completely withered)) | 0 (Herbicidal ratio of 5% or lower (almost no effect)) | 0 (Herbicidal ratio of 5% or lower (almost no effect)) | 0 (Herbicidal ratio of 5% or lower (almost no effect)) | 0 (Herbicidal ratio of 5% or lower (almost no effect)) | 0 (Herbicidal ratio of 5% or lower (almost no effect)) | 1 (Herbicidal ratio of 5% or higher and lower than 20%) | 0 (Herbicidal ratio of 5% or lower (almost no effect)) |  |  |  |  |  |  |  |  | 
